Literature values as cited in patent US8071763B2, “Methods for treatment of nocturia” (Daiichi Sankyo Company, Limited, priority 2002, dated 2011).
Read-outs that look alike come from different tables or passages of the source.

Key:
[1] = system: nocturia; settings: 100 mg suppository, open trial, 15 patients; cited from earlier work
[2] = system: nocturia; settings: one patient; suppository administered as antipyretics; cited from earlier work

SMILES: COc1ccc2c(c1)c(CC(=O)O)c(C)n2C(=O)c1ccc(Cl)cc1 [indomethacin]
- Effect on nocturia [1]: improved nocturia in all 15 patients
- Effect on nocturia [2]: nocturia was improved
